Patent publication US20240254114A1, “PREPARATION OF FUSED AZOLE DERIVATIVES AS NOVEL DIACYLGLYCERIDE 0-ACYLTRANSFERASE 2 INHIBITORS” (Merck Sharp & Dohme LLC, priority 2022, published 2024)
pIC50: −log10 of the molar value. Where two headings read alike, the source gives them in different places.

Target: human DGAT2 (Homo sapiens (Human), UniProt Q96PD7)
Assay: DGAT2 Enzymatic Activity Assay
Settings: 13C18-triolein product by LC/MS/MS
[1] = read-out: Human DGAT2 IC50, hDGAT2 membrane prep from Sf-9 cells
[2] = Human DGAT2 IC50, hDGAT2 membrane prep from Sf-9 cells

human DGAT2, sequence (Q96PD7 whole entry): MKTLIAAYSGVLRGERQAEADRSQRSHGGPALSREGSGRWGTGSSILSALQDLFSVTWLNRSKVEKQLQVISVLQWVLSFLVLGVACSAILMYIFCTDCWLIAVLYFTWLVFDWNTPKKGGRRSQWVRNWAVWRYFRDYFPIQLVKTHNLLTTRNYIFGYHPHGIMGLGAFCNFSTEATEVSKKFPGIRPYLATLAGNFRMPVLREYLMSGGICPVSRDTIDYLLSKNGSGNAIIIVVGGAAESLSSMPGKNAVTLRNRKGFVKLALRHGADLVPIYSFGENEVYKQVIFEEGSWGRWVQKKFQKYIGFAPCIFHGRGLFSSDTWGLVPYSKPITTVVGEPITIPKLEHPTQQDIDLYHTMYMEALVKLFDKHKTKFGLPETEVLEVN
Method: Sf-9 insect cells were maintained in Grace's insect cell culture medium with 10% heated-inactivated fetal bovine serum, 1% Pluronic F-68 and 0.14 μg/ml Kanamycine sulfate at 27° C. in a shaker incubator. After infection with untagged baculovirus expressing human DGAT2 (hDGAT2) at multiplicity of infection (MOI) 3 for 48 hours, cells were harvested. Cell pellets were suspended in buffer containing 10 mM Tris-HCl pH 7.5, 1 mM EDTA, 250 mM sucrose and Complete Protease Inhibitor Cocktail (Sigma Aldrich), and sonicated on ice. Cell debris were removed by centrifugation at 2000×g for 15 minutes. Membrane fractions were isolated by ultracentrifugation (100,000×g), resuspended in the same buffer, and frozen (−80° C.) for later use. The protein concentration was determined with the Pierce™ BCA Protein Assay Kit (Thermo Fisher Scientific).
LC/MS/MS analyses were performed using Thermal Fisher's LX4-TSQ Vantage system. This system consists of an Agilent binary high-performance liquid chromatography (HPLC) pump and a TSQ Vantage triple quadrupole MS/MS instrument. For each sample, 2 μL samples from the top organic layer of in-plate liquid-liquid extraction were injected onto a Thermo Betabasic C4 column (2.1 mm×20 mm, 5 μm particle size). The samples were then eluted using the following conditions; mobile phase: Isopropanol: acetonitrile/10 mM ammonium formate=50/35/15 (v/v/v), flow rate: 0.8 mL/min, temperature: 25° C. Data was acquired in positive mode using a heated electrospray ionization (HESI) interface. […] The peak area was integrated by Xcalibur Quan software. The ratio between the ^13C18 triolein generated in the reaction and spiked in internal standard ^13C21-triolein was used to generate percentage inhibition and IC50 values. […] DGAT2 activity was determined by measuring the amount of enzymatic product ^13C18-triolein (^13C-1,2,3-Tri(cis-9-octadecenoyl)glycerol) using the membrane prep mentioned above. The assay was carried out in ABgene 384-well assay plates in a final volume of 25 μL at rt.

| pIC50 [1] | pIC50 [2] | SMILES |
| --- | --- | --- |
| 7.32 | – | Cn1c(C(=O)NC2(C)CCS(=O)(=O)CC2)nc2cnc(Oc3ncc(F)cc3OCC(F)(F)F)c(F)c21 [Example 77, 7-fluoro-6-[[5-fluoro-3-(2,2,2-trifluoroethoxy)-2-pyridyl]oxy]-1-methyl-N-(4-methyl-1,1-dioxo-thian-4-yl)imidazo[4,5-c]pyridine-2-carboxamide] |
| – | 8.41 | Cc1c(Oc2ncc(Cl)cc2OCC(F)F)ncc2nc(C(=O)NC3(C)CCS(=O)(=O)CC3)n(C)c12 [Example 78, 6-[[5-Chloro-3-(2,2-difluoroethoxy)-2-pyridyl]oxy]-1,7-dimethyl-N-(4-methyl-1,1-dioxo-thian-4-yl)imidazo[4,5-c]pyridine-2-carboxamide] |
| 7.24 | – | Cc1c(Oc2ncc(F)cc2OCC(F)(F)F)ncc2nc(C(=O)NC3(C)CCS(=O)(=O)CC3)n(C)c12 [Example 79, 6-[[5-fluoro-3-(2,2,2-trifluoroethoxy)-2-pyridyl]oxy]-1,7-dimethyl-N-(4-methyl-1,1-dioxo-thian-4-yl)imidazo[4,5-c]pyridine-2-carboxamide] |
| – | 7.52 | Cn1c(C(=O)NC2(C)CCS(=O)(=O)CC2)nc2cnc(OCc3ncc(Cl)cc3OCC(F)F)cc21 [Example 80, 6-((5-Chloro-3-(2,2-difluoroethoxy)pyridin-2-yl)methoxy)-1-methyl-N-(4-methyl-1,1-dioxidotetrahydro-2H-thiopyran-4-yl)-1H-imidazo[4,5-c]pyridine-2-carboxamide] |
| 6.58 | – | Cn1c(C(=O)NC2(C)CCS(=O)(=O)CC2)nc2cnc(OCc3ncc(F)cc3OCC(F)(F)F)cc21 [Example 81, 6-[[5-Fluoro-3-(2,2,2-trifluoroethoxy)-2-pyridyl]methoxy]-1-methyl-N-(4-methyl-1,1-dioxo-thian-4-yl)imidazo[4,5-c]pyridine-2-carboxamide] |
| – | 8.92 | Cn1c(C(=O)NC2(C)CCS(=O)(=O)CC2)nc2ncc(Oc3ncc(Cl)cc3OCC(F)F)cc21 [Example 82, 6-[[5-Chloro-3-(2,2-difluoroethoxy)-2-pyridyl]oxy]-1-methyl-N-(4-methyl-1,1-dioxo-thian-4-yl)imidazo[4,5-b]pyridine-2-carboxamide] |
| 7.92 | – | Cn1c(C(=O)NC2(C)CCS(=O)(=O)CC2)nc2ncc(Oc3ncc(F)cc3OCC(F)(F)F)cc21 [Example 83, 6-[[5-fluoro-3-(2,2,2-trifluoroethoxy)-2-pyridyl]oxy]-1-methyl-N-(4-methyl-1,1-dioxo-thian-4-yl)imidazo[4,5-b]pyridine-2-carboxamide] |
| – | 8.11 | Cc1c(Oc2ncc(Cl)cc2OCC(F)F)cnc2nc(C(=O)NC3(C)CCS(=O)(=O)CC3)n(C)c12 [Example 84, 6-[[5-Chloro-3-(2,2-difluoroethoxy)-2-pyridyl]oxy]-1,7-dimethyl-N-(4-methyl-1,1-dioxo-thian-4-yl)imidazo[4,5-b]pyridine-2-carboxamide] |
| 6.76 | – | Cc1c(Oc2ncc(F)cc2OCC(F)(F)F)cnc2nc(C(=O)NC3(C)CCS(=O)(=O)CC3)n(C)c12 [Example 85, 6-[[5-fluoro-3-(2,2,2-trifluoroethoxy)-2-pyridyl]oxy]-1,7-dimethyl-N-(4-methyl-1,1-dioxo-thian-4-yl)imidazo[4,5-b]pyridine-2-carboxamide] |
| – | 7.41 | Cc1nc2nc(C(=O)NC3(C)CCS(=O)(=O)CC3)n(C)c2cc1Oc1ncc(Cl)cc1OCC(F)F [Example 86, 6-[[5-Chloro-3-(2,2-difluoroethoxy)-2-pyridyl]oxy]-1,5-dimethyl-N-(4-methyl-1,1-dioxo-thian-4-yl)imidazo[4,5-b]pyridine-2-carboxamide] |
| 7.60 | – | Cc1nc2nc(C(=O)NC3(C)CCS(=O)(=O)CC3)n(C)c2cc1Oc1ncc(F)cc1OCC(F)(F)F [Example 87, 6-[[5-fluoro-3-(2,2,2-trifluoroethoxy)-2-pyridyl]oxy]-1,5-dimethyl-N-(4-methyl-1,1-dioxo-thian-4-yl)imidazo[4,5-b]pyridine-2-carboxamide] |
| – | 7.24 | Cn1c(C(=O)NC2(C)CCS(=O)(=O)CC2)nc2cnc(Oc3ncc(Cl)cc3OCC(F)F)nc21 [Example 88, 2-[[5-Chloro-3-(2,2-difluoroethoxy)-2-pyridyl]oxy]-9-methyl-N-(4-methyl-1,1-dioxo-thian-4-yl)purine-8-carboxamide] |
| 7.60 | – | Cn1c(C(=O)NC2(C)CCS(=O)(=O)CC2)nc2cnc(Oc3ncc(F)cc3OCC(F)(F)F)nc21 [Example 89, 2-[[5-fluoro-3-(2,2,2-trifluoroethoxy)-2-pyridyl]oxy]-9-methyl-N-(4-methyl-1,1-dioxo-thian-4-yl)purine-8-carboxamide] |
| – | 8.39 | Cn1c(C(=O)NC2(C)CCS(=O)(=O)CC2)nc2ncc(Oc3ncc(Cl)cc3OCC(F)F)nc21 [Example 90, 6-((5-Chloro-3-(2,2-difluoroethoxy)pyridin-2-yl)oxy)-1-methyl-N-(4-methyl-1,1-dioxidotetrahydro-2H-thiopyran-4-yl)-1H-imidazo[4,5-b]pyrazine-2-carboxamide] |
| – | 8.89 | CC1(NC(=O)c2nc3ccc(Oc4ncccc4OCC(F)(F)F)cc3s2)CCS(=O)(=O)CC1 [Example 91, N-(4-Methyl-1,1-dioxidotetrahydro-2H-thiopyran-4-yl)-6-((3-(2,2,2-trifluoroethoxy)pyridin-2-yl)oxy)benzo[d]thiazole-2-carboxamide] |
| 7.92 | – | CC1(NC(=O)c2nc3ccc(Oc4ncccc4OCC(F)(F)F)cc3s2)CS(=O)(=O)C1 [Example 92, N-(3-methyl-1,1-dioxo-thietan-3-yl)-6-[[3-(2,2,2-trifluoroethoxy)-2-pyridyl]oxy]-1,3-benzothiazole-2-carboxamide] |
| 6.33 | – | O=C(N[C@H]1CCOC1)c1nc2ccc(Oc3ncccc3OCC(F)(F)F)cc2s1 [Example 93, N-[(3S)-tetrahydrofuran-3-yl]-6-[[3-(2,2,2-trifluoroethoxy)-2-pyridyl]oxy]-1,3-benzothiazole-2-carboxamide] |
| – | 8.70 | CC1(NC(=O)c2nc3ccc(Oc4ncc(Cl)cc4OCC(F)F)nc3s2)CCS(=O)(=O)CC1 [Example 94, 5-((5-Chloro-3-(2,2-difluoroethoxy)pyridin-2-yl)oxy)-N-(4-methyl-1,1-dioxidotetrahydro-2H-thiopyran-4-yl)thiazolo[5,4-b]pyridine-2-carboxamide] |
| 8.00 | – | CC1(NC(=O)c2nc3ccc(Oc4ncc(Cl)cc4OCC(F)F)nc3s2)CS(=O)(=O)C1 [Example 95] |
| 8.48 | – | O=C(N[C@H]1CCCC(F)(F)[C@@H]1O)c1nc2ccc(Oc3ncc(Cl)cc3OCC(F)F)nc2s1 [Example 96, 5-((5-chloro-3-(2,2-difluoroethoxy)pyridin-2-yl)oxy)-N-((1S,2R)-3,3-difluoro-2-hydroxycyclohex-yl)thiazolo[5,4-b]pyridine-2-carboxamide] |
| – | 8.60 | CC1(NC(=O)c2nc3cnc(Oc4ncc(Cl)cc4OCC(F)F)cc3s2)CCS(=O)(=O)CC1 [Example 97, 6-[[5-chloro-3-(2,2-difluoroethoxy)-2-pyridyl]oxy]-N-(4-methyl-1,1-dioxo-thian-4-yl)thiazolo[4,5-c]pyridine-2-carboxamide] |
| – | 6.17 | CC1(NC(=O)c2nc3ncc(Oc4ncccc4OCC(F)(F)F)cc3o2)CCS(=O)(=O)CC1 [Example 98, N-(4-methyl-1,1-dioxidotetrahydro-2H-thiopyran-4-yl)-6-((3-(2,2,2-trifluoroethoxy)pyridin-2-yl)oxy)oxazolo[4,5-b]pyridine-2-carboxamide] |
| – | 8.96 | Cn1c(C(=O)NC2(C)CCS(=O)(=O)CC2)cc2ccc(Oc3ncc(Cl)cc3OCC(F)F)nc21 [Example 99, 6-((5-Chloro-3-(2,2-difluoroethoxy)pyridin-2-yl)oxy)-1-methyl-N-(4-methyl-1,1-dioxidotetrahydro-2H-thiopyran-4-yl)-1H-pyrrolo[2,3-b]pyridine-2-carboxamide] |
